For 8 compounds, Kd results are on record in US20260374773A1, “MULTI-CYCLIC IRAK AND FLT3 INHIBITING COMPOUNDS AND USES THEREOF” (CHILDREN'S HOSPITAL MEDICAL CENTER, priority 2022, published 2026).

The first assay addresses T1, FLT3 K663Q (Homo sapiens, UniProt P36888, K663Q).
T1 sequence (P36888 27-993 K663Q): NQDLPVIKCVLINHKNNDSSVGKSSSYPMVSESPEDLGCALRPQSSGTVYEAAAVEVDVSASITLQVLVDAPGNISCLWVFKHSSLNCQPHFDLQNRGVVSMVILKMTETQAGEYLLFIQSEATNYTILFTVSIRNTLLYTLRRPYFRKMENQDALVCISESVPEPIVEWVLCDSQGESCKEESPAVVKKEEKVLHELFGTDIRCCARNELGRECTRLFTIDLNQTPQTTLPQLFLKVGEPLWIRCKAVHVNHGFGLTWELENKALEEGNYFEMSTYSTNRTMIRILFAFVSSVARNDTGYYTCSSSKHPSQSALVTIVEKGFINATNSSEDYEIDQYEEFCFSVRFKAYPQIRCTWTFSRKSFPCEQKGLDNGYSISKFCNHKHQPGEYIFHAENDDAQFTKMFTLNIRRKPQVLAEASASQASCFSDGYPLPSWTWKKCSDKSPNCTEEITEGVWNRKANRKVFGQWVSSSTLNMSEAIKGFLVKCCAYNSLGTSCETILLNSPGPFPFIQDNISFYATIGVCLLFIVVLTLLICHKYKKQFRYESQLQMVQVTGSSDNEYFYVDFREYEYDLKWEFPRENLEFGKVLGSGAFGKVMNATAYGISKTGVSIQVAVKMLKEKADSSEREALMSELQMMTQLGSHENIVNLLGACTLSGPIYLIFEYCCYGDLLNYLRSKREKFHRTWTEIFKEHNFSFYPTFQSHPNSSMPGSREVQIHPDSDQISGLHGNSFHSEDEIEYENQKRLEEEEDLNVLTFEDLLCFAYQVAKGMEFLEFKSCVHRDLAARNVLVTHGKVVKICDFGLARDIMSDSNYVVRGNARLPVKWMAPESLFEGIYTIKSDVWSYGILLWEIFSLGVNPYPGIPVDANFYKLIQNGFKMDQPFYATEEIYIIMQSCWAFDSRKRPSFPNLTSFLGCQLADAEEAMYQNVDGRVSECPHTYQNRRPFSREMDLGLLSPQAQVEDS
Kind of assay: DiscoverX KINOMEscan active site-directed competition binding, FLT3 K663Q. As to conditions: Table 13; no ATP.
Source text: (§1) Kinase binding data were obtained for various exemplary compounds prepared according to Examples 1-8 using the DiscoverX KINOMEscan® active site-directed competition binding site-directed assay protocol described below. […] As a result, the data report thermodynamic interaction affinities (Kd values), rather than IC50 values that are dependent on ATP concentrations. The assay uses a DNA-tagged version of the protein kinase, and an immobilized ligand bound to a solid support. Compounds that directly or indirectly prevent kinase binding to the immobilized ligand reduce the amount of kinase captured on the solid support, which is detected using an ultra-sensitive qPCR method. Affinity constants reported from the assay have been reported to be independent of the immobilized ligand used that is coupled to the solid support (See supplemental information in Fabian, M. A. et. al., (2005) Nat. Biotechnol. 23, 329-336; Wodicka, L. M. et. al., (2010) Chem. Biol. 17, 1241-1249.)
Kinase-tagged T7 phage strains were prepared in an E. coli host derived from the BL21 strain. E. coli were grown to log-phase and infected with T7 phage and incubated with shaking at 32 °C until lysis. The lysates were centrifuged and filtered to remove cell debris. The remaining kinases were produced in HEK-293 cells and subsequently tagged with DNA for qPCR detection. Streptavidin-coated magnetic beads were treated with biotinylated small molecule ligands for 30 minutes at room temperature to generate affinity resins for kinase assays. The liganded beads were blocked with excess biotin and washed with blocking buffer (SeaBlock (Pierce), 1% BSA, 0.05% Tween 20, 1 mM DTT) to remove unbound ligand and to reduce non-specific binding. […] Test compounds were prepared as 111x stocks in 100% DMSO. Kds were determined using an 11-point 3-fold compound dilution series with three DMSO control points. All compounds for Kd measurements are distributed by acoustic transfer (non-contact dispensing) in 100% DMSO. The compounds were then diluted directly into the assays such that the final concentration of DMSO was 0.9%. All reactions were performed in polypropylene 384-well plates. Each was a final volume of 0.02 mL. The assay plates were incubated at room temperature with shaking for 1 hour and the affinity beads were washed with wash buffer (1×PBS, 0.05% Tween 20). The beads were then re-suspended in elution buffer (1×PBS, 0.05% Tween 20, 0.5 μM nonbiotinylated affinity ligand) and incubated at room temperature with shaking for 30 minutes. The kinase concentration in the eluates was measured by qPCR. Binding constants (Kds) were calculated with a standard dose-response curve using the Hill equation. The Hill Slope was set to −1. Curves were fitted using a non-linear least square fit with the Levenberg-Marquardt algorithm.
as §1, with “9-12” for “1-8”
Kinase-tagged T7 phage strains were prepared in an E. coli host derived from the BL21 strain. […]
Usually Kd stands for the constant that tells how readily two partners part at equilibrium. Take `COc1cn2ncc(-c3nc(N[C@H]4CNCC[C@@H]4F)c(C#N)cc3F)c2nc1C(C)(C)O` [Compound 10, 5-fluoro-2-(((3S,4S)-4-fluoropiperidin-3-yl)amino)-6-(5-(2-hydroxypropan-2-yl)-6-methoxypyrazolo[1,5-a]pyrimidin-3-yl)nicotinonitrile]: the Kd was determined as 1.1 nM. In other words, the single-digit nanomolar range.

In the case of `COc1cn2ncc(-c3nc(N[C@H]4CNCC[C@@H]4F)c(C#N)cc3F)c2nc1C1CC1` [Compound 7, 6-(5-cyclopropyl-6-methoxypyrazolo[1,5-a]pyrimidin-3-yl)-5-fluoro-2-(((3S,4S)-4-fluoropiperidin-3-yl)amino)nicotinonitrile], the Kd is under 0.17 nM.

`COc1cn2ncc(-c3nc(N[C@H]4CNCC[C@@H]4F)c(F)cc3F)c2nc1C(C)(C)O` [Compound 13, 2-(3-(3,5-difluoro-6-(((3S,4S)-4-fluoropiperidin-3-yl)amino)pyridin-2-yl)-6-methoxypyrazolo[1,5-a]pyrimidin-5-yl)propan-2-ol]: the affinity, expressed as Kd, was 1.6 nM. This counts as single-digit nanomolar.

The assay is the same for the next values; noted with them: Table 19; no ATP.
`COc1cn2ncc(-c3nc(N[C@@H]4CCCNC4)ncc3F)c2nc1C1CC1` [Compound 14a, (R)-4-(5-cyclopropyl-6-methoxypyrazolo[1,5-a]pyrimidin-3-yl)-5-fluoro-N-(piperidin-3-yl)pyrimidin-2-amine] had a Kd of under 0.17 nM.

On to `COc1cn2ncc(-c3nc(N[C@H]4CNCC[C@@H]4F)ncc3F)c2nc1C(C)(C)O` [Compound 6a, 2-(3-(5-fluoro-2-(((3S,4S)-4-fluoropiperidin-3-yl)amino)pyrimidin-4-yl)-6-methoxypyrazolo[1,5-a]pyrimidin-5-yl)propan-2-ol], for which binding was put at a Kd of 2 nM.

With `COc1cn2ncc(-c3nc(N[C@H]4CNCC[C@@H]4F)ncc3F)c2nc1C1CC1` [Compound 15a, 4-(5-cyclopropyl-6-methoxypyrazolo[1,5-a]pyrimidin-3-yl)-5-fluoro-N-((3S,4S)-4-fluoropiperidin-3-yl)pyrimidin-2-amine], the Kd stood at 0.21 nM.

In turn, `COc1cn2ncc(-c3cncc(N[C@H]4CNCC[C@@H]4F)n3)c2nc1C1CC1` [Compound 12a, 6-(5-cyclopropyl-6-methoxypyrazolo[1,5-a]pyrimidin-3-yl)-N-((3S,4S)-4-fluoropiperidin-3-yl)pyrazin-2-amine] came in with a Kd of 0.44 nM.

The compound `COc1cn2ncc(-c3ccnc(N[C@H]4CNCC[C@@H]4F)n3)c2nc1C1CC1` [Compound 7a, 4-(5-cyclopropyl-6-methoxypyrazolo[1,5-a]pyrimidin-3-yl)-N-((3S,4S)-4-fluoropiperidin-3-yl)pyrimidin-2-amine] had a Kd of 0.82 nM.
